{"source": "patent US4520101A", "about": "(priority 1983, dated 1985)", "test_system": "Cephalosporium acremonium (a high ceph C-producing mutant strain which also produces desacetyl ceph C)", "type": "cell-based", "note": "Where “and” joins values, the source holds several entries; their conditions need not be identical. Equal entries are not always repeated."}
{"smiles": "CCOP(=O)(OCC)C(C)=O", "note": "[diethyl acetyl phosphonate]", "values": [{"measurement": "Ceph C", "result": "9285 µg/g and 9665 µg/g"}, {"measurement": "Des C/Total Ceph Nucleus (Ceph C + Des Ceph C)", "result": "4.52% and 4.40%"}, {"measurement": "Des Ceph C", "result": "440 µg/g and 445 µg/g"}]}
